Measurements: ChEMBL document CHEMBL5325401, “Computer-aided identification, synthesis, and biological evaluation of DNA polymerase η inhibitors for the treatment of cancer” (Eur J Med Chem, 2023)
Values after ≈ are worked out from the molar mass of the structure shown.

Assays:
DNA polymerase eta [1] = molecular target: T1, DNA polymerase eta (Homo sapiens, UniProt Q9Y253); assay: (§1) Inhibition of C-terminal 6xHis-tagged human DNA polymerase eta (1 to 511 residues) expressed in Escherichia coli BL21 DE3 using 5'-IRD700-GCAGGTCGACTCCAAAG-3' primer/ 5'-TCGGTACCGGGTTAGCCTTTGGAGTCGACCTGC-3' template as DNA substrate incubated for 60 mins in presence of Mg2+ by bromophenol blue staining based assay
T1 sequence (Q9Y253 whole entry): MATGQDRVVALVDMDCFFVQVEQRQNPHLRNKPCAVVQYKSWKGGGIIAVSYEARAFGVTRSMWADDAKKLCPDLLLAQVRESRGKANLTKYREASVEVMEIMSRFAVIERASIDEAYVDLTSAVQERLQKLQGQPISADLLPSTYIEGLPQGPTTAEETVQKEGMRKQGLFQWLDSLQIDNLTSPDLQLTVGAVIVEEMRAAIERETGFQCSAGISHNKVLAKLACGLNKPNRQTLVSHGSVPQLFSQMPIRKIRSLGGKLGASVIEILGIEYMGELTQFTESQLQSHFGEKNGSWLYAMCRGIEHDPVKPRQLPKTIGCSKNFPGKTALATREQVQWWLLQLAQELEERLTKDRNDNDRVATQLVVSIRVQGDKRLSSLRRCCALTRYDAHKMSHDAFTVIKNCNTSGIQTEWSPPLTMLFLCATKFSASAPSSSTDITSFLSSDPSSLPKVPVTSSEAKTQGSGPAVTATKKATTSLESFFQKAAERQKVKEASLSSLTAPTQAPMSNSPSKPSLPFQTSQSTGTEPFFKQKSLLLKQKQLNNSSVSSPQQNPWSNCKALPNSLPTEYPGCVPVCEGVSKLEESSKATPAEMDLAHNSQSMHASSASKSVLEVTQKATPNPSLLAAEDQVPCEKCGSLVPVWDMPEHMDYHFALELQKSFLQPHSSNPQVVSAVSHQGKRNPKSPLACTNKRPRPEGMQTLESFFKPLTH

[2] = Metabolic stability in mouse liver microsome assessed as half life at 4.6 uM incubated upto 60 mins by LC/MS-MS analysis; format: ADME; conditions: liver microsomes
[3] = Metabolic stability in mouse plasma assessed as half life at 2 uM incubated upto 120 mins by UPLC/MS analysis; format: ADME, cell-free
[4] = Kinetic solubility of compound in neutral buffer at pH 7.4 at 250 uM measured after 24 hrs by UPLC/MS analysis; format: physicochemical; conditions: read-out: Kinetic_solubility
[5] = molecular target: T2, DNA polymerase eta (Homo sapiens) (UniProt Q9Y253); assay: as §1, with “substrate at 1 uM” for “substrate”, “assay relative to control” for “assay”
T2 sequence (whole entry): T1 sequence (Q9Y253 whole entry)

[6] = molecular target: T2, DNA polymerase eta (Homo sapiens); assay: as §1, with “substrate at 100 uM” for “substrate”, “assay relative to control” for “assay”
[7] = Inhibition of DNA polymerase (unknown origin); design: species or system Homo sapiens
DNA polymerase eta [8] = molecular target: T1, DNA polymerase eta; assay: Inhibition of 6xHis-tagged human DNA polymerase eta (1 to 437 residues) expressed in Escherichia coli BL21 DE3 assessed as displacement of reporter strand using 5'-TTT TTT TTG C-TAMRA-3' reporter/5'-TCA CCC TCG TAC GAC TCT T-3' primer/5'-BHQ2-GCAAAAAAAAAAGAGTCGTACGAGGGTGA-3' template of 1:1.5:1.5 as DNA substrate preincubated for 5 to 10 mins followed by substrate addition measured immediately in presence of dTTP/MgCl2 by fluorescence based assay
DNA polymerase eta [9] = molecular target: T1, DNA polymerase eta; assay: Inhibition of human DNA polymerase eta (1 to 437 residues) using 5'-TTT TTT TTG C-TAMRA-3' reporter/5'-(FAM-TTT)-GGGGGAAGGATTC-3' primer/5'-TCACGGAATCCTTCCCCC-3' template as DNA substrate preincubated for 5 to 10 mins followed by DNA substrate addition measured immediately in presence of dTTP/MgCl2 by fluorescence based assay

Row | Structure (SMILES) | IC50 (DNA polymerase eta [1]) [µM] | further results
1 | CCOc1c(-c2ccc(O)c(O)c2)oc2cc(O)cc(O)c2c1=O | 33.5 | 
2 | O=C(Nc1ccc(O)c(O)c1)c1cc(=O)c2c(O)cccc2o1 | 26.5 | 
3 | O=c1cc(-c2ccc(O)c(O)c2)oc2cccc(O)c12 | 8.7 | half-life at 4.6 µM [2]: > 1 h; half-life at 2 µM [3]: > 2 h; solubility kinetic at 24 h, 250 µM [4]: 9 µM (≈ 2.43 µg/mL)
4 | Cc1cc(=O)c2c(CC(=O)CC(O)CC(=O)O)cccc2o1 (racemic) |  | inhibition [5]: 22.8%; inhibition [6]: 100%
5 | COc1cc(O)cc2oc(-c3ccc(O)c(O)c3)cc(=O)c12 | 10.2 | half-life at 4.6 µM [2]: > 1 h; half-life at 2 µM [3]: > 2 h; solubility kinetic at 24 h, 250 µM [4]: 87 µM (≈ 26.1 µg/mL)
6 | CCCc1c(-c2ccc(O)c(O)c2)oc2cc(O)cc(O)c2c1=O | 87.1 | 
7 | COc1cc(O)c2c(=O)cc(-c3ccc4c(c3)OC(F)(F)O4)oc2c1 | > 100 | 
8 | O=c1cc(CCc2ccc(O)c(O)c2)oc2cccc(O)c12 | > 100 | 
9 | CCCCOc1c(-c2ccc(O)c(O)c2)oc2cc(O)cc(O)c2c1=O | 62.4 | 
10 | O=C(O)C1=CC(=C(c2ccc(O)c(C(=O)O)c2)c2ccc(O)c(C(=O)O)c2)C=CC1=O [AURINTRICARBOXYLIC ACID] |  | IC50 [7]: 0.4 µM
11 | COc1ccc(-c2cc(=O)c3c(OC)c(OC)c(OC)cc3o2)cc1OC [SINENSETIN] | > 100 | 
12 | O=c1cc(-c2ccc3c(c2)OC(F)(F)O3)oc2cc(O)cc(O)c12 | > 100 | 
13 | O=c1cc(-c2cccc(O)c2)oc2cc(O)cc(O)c12 | 5 | half-life at 4.6 µM [2]: 0.183 h; half-life at 2 µM [3]: > 2 h; solubility kinetic at 24 h, 250 µM [4]: 6 µM (≈ 1.62 µg/mL)
14 | O=c1c(-c2ccc(O)cc2)coc2cc(O)cc(O)c12 [GENISTEIN] | 92.4 | 
15 | O=c1cc(Cc2ccc(O)c(O)c2)oc2cccc(O)c12 | > 100 | 
16 | O=c1c(O)c(-c2ccc(O)cc2)oc2cc(O)cc(O)c12 [KAEMPFEROL] | 12.7 | 
17 | CCCCc1c(-c2ccc(O)c(O)c2)oc2cc(O)cc(O)c2c1=O | > 100 | 
18 | COc1cccc2oc(-c3ccccc3C(F)(F)F)cc(=O)c12 | > 100 | 
19 | O=c1cc(-c2ccc(O)c(O)c2)oc2cc(F)cc(O)c12 | 13.8 | half-life at 4.6 µM [2]: > 1 h; half-life at 2 µM [3]: > 2 h; solubility kinetic at 24 h, 250 µM [4]: < 1 µM

Row | Structure (SMILES) | IC50 (DNA polymerase eta [1]) [µM] | further results
20 | O=c1cc(-c2ccc(O)c(O)c2)oc2cc(O)cc(O)c12 [LUTEOLIN] | 12.7 | half-life at 4.6 µM [2]: > 1 h; half-life at 2 µM [3]: > 2 h; inhibition [5]: 49.9%; inhibition [6]: 95%; solubility kinetic at 24 h, 250 µM [4]: 21 µM (≈ 6.01 µg/mL)
21 | O=c1cc(-c2ccccc2)oc2cc(O)cc(O)c12 [CHRYSIN] | 14.8 | 
22 | COc1cccc2oc(-c3ccccc3C)cc(=O)c12 | > 100 | 
23 | O=c1cc(-c2ccccc2)oc2cc(O)c(O)c(O)c12 [BAICALEIN] | 11.8 | half-life at 4.6 µM [2]: 0.683 h; half-life at 2 µM [3]: > 2 h; solubility kinetic at 24 h, 250 µM [4]: 12 µM (≈ 3.24 µg/mL)
24 | O=c1cc(-c2ccc(O)c(O)c2)oc2cc(O)ccc12 | 27 | 
25 | O=c1c(O)c(-c2ccc(O)c(O)c2)oc2cc(O)cc(O)c12 [QUERCETIN] | 15.8 | half-life at 4.6 µM [2]: > 1 h; half-life at 2 µM [3]: 0.117 h; solubility kinetic at 24 h, 250 µM [4]: 16 µM (≈ 4.84 µg/mL)
26 | O=c1cc(-c2ccc(O)c(O)c2)oc2ccccc12 | 30.5 | 
27 | O=c1c(OCCO)c(-c2ccc(O)c(O)c2)oc2cc(O)cc(O)c12 | 87.5 | 
28 | O=C(O)CCc1cc(=O)c2c(O)cc(O)cc2o1 | > 100 | 
29 | COc1c(-c2ccc(O)cc2)oc2cc(O)cc(O)c2c1=O [ISOKAEMPFERIDE] | 16.1 | 
30 | COc1cccc2oc(-c3ccccc3F)cc(=O)c12 | > 100 | 
31 | O=c1cc(-c2ccc(O)cc2)oc2cc(O)cc(O)c12 [APIGENIN] | 22.2 | half-life at 4.6 µM [2]: 0.133 h; half-life at 2 µM [3]: > 2 h; solubility kinetic at 24 h, 250 µM [4]: 13 µM (≈ 3.51 µg/mL)
32 | O=c1cc(/C=C/c2ccc(O)c(O)c2)oc2cccc(O)c12 | > 100 | 
33 | COc1cccc2oc(-c3ccc(O)cc3C)cc(=O)c12 | 98.3 | 
34 | O=C1NC(=S)NC(=O)C1=Cc1cn(C(=O)c2ccc3ccccc3c2)c2ccc(Cl)cc12 |  | IC50 (DNA polymerase eta [8]): 16 µM
35 | Cc1c(-c2ccc(O)c(O)c2)oc2cc(O)cc(O)c2c1=O | 84.6 | 
36 | O=C(O)c1cc(-c2cc(=O)c3c(O)cc(O)cc3o2)ccc1O | 7.7 | 
37 | O=C1NC(=S)NC(=O)C1=Cc1cn(Cc2ccc3ccccc3c2)c2ccc(Cl)cc12 |  | IC50 (DNA polymerase eta [9]): 8 µM
